Experimental data as given in ChEMBL document CHEMBL5528008, “Design and synthesis of the first PARP-1 and proteasome dual inhibitors to treat breast cancer” (Eur J Med Chem, 2024).
Each block holds one compound with its values, some of them ahead of it. Calls of active or inactive are those of the source. The calls are words filed in the database; no cut-off is given here.

How the values were obtained:
[1] = biological target: 20S proteasome; assay: Inhibition of 20S proteasome (unknown origin) using […] as substrate; format: protein-complex assay, Homo sapiens
[2] = system: BT-549; assay: Cytotoxicity against human BT-549 cells assessed as inhibition of cell growth incubated for 72 hrs by MTT assay; format: functional, cell-based; details: BT-549, 72 h
[3] = system: MCF7; assay: Cytotoxicity against human MCF7 cells assessed as inhibition of cell growth incubated for 72 hrs by MTT assay; format: functional, cell-based; details: MCF7, 72 h
[4] = system: MDA-MB-231; assay: Cytotoxicity against human MDA-MB-231 cells assessed as inhibition of cell growth incubated for 72 hrs by MTT assay; format: functional, cell-based; details: MDA-MB-231, 72 h
[5] = biological target: T1, Poly [ADP-ribose] polymerase 1 (Homo sapiens, UniProt P09874); assay: Inhibition of PARP-1 (unknown origin) using Femto-ECL as substrate preincubated for 2.7 hrs followed by substrate addition by chemiluminescence assay
[6] = biological target: T1, Poly [ADP-ribose] polymerase 1; assay: Inhibition of PARP-1 in human BT-549 cells assessed as downregulation of P-ATM expression at 0.5 uM incubated for 48 hrs by immunoblotting analysis; format: cell-based
[7] = system: BT-549; assay: Induction in cell cycle arrest in human BT-549 cells assessed as downregulation of Cyclin A2 expression at 0.5 uM incubated for 48 hrs by Western blotting analysis; format: functional, cell-based
[8] = system: BT-549; assay: Induction of apoptosis in human BT-549 cells assessed as upregulation of cleaved PARP expression incubated for 48 hrs by Western blotting analysis; format: functional, cell-based
[9] = biological target: T1, Poly [ADP-ribose] polymerase 1; assay: Inhibition of PARP-1 in human BT-549 cells assessed as downregulation of P-ATM expression at 0.05 uM incubated for 48 hrs by immunoblotting analysis; format: cell-based
[10] = system: BT-549; assay: Induction of DNA damage in human BT-549 cells assessed as increase in polyubiquitination at 0.125 uM incubated for 48 hrs by fluorescence confocal microscopic analysis; format: functional, cell-based
[11] = system: BT-549; assay: Inhibition of colony formation in human BT-549 cells assessed as reduction in colony number incubated for 14 days by crystal violet staining based analysis; format: functional, cell-based; details: time 14.0 day
[12] = system: BT-549; assay: Inhibition of colony formation in human BT-549 cells assessed as reduction in colony size incubated for 14 days by crystal violet staining based analysis; format: functional, cell-based; details: time 14.0 day
[13] = system: BT-549; assay: Induction of apoptosis in human BT-549 cells assessed as upregulation of cleaved caspase-3 expression incubated for 48 hrs by Western blotting analysis; format: functional, cell-based
[14] = system: BT-549; assay: Induction of apoptosis in human BT-549 cells assessed as increase in early apoptotic cells incubated for 48 hrs by Annexin V-FITC/PI staining based flow cytometric analysis; format: functional, cell-based
[15] = biological target: T1, Poly [ADP-ribose] polymerase 1; assay: Inhibition of PARP-1 in human BT-549 cells assessed as downregulation of RAD51 mRNA expression incubated for 48 hrs by RT-qPCR analysis; format: cell-based
[16] = system: BT-549; assay: Induction of DNA damage in human BT-549 cells assessed as upregulation of gamma-H2AX level at 0.5 uM incubated for 48 hrs by immunoblotting analysis; format: functional, cell-based
[17] = biological target: T1, Poly [ADP-ribose] polymerase 1; assay: Inhibition of PARP-1 in human BT-549 cells assessed as downregulation of BRCA1 expression at 0.05 uM incubated for 48 hrs by immunoblotting analysis; format: cell-based
[18] = system: BT-549; assay: Induction in cell cycle arrest in human BT-549 cells assessed as upregulation of p21 expression at 0.05 uM incubated for 48 hrs by Western blotting analysis; format: functional, cell-based
[19] = system: BT-549; assay: Induction of DNA damage in human BT-549 cells assessed as decrease in BRCA1 localization in nucleus at 0.125 uM incubated for 48 hrs by fluorescence confocal microscopic analysis; format: functional, cell-based
[20] = biological target: T1, Poly [ADP-ribose] polymerase 1; assay: Inhibition of PARP-1 in human BT-549 cells assessed as downregulation of BRCA2 mRNA expression incubated for 48 hrs by RT-qPCR analysis; format: cell-based
[21] = system: BT-549; assay: Induction in cell cycle arrest in human BT-549 cells assessed as downregulation of Cyclin A2 expression at 0.05 uM incubated for 48 hrs by Western blotting analysis; format: functional, cell-based
[22] = biological target: T1, Poly [ADP-ribose] polymerase 1; assay: Inhibition of PARP-1 in human BT-549 cells assessed as downregulation of RAD51 expression at 0.5 uM incubated for 48 hrs by immunoblotting analysis; format: cell-based
[23] = system: BT-549; assay: Induction in cell cycle arrest in human BT-549 cells assessed as downregulation of CDK1 expression at 0.05 uM incubated for 48 hrs by Western blotting analysis; format: functional, cell-based
[24] = biological target: T1, Poly [ADP-ribose] polymerase 1; assay: Inhibition of PARP-1 in human BT-549 cells assessed as downregulation of FANCD2 mRNA expression incubated for 48 hrs by RT-qPCR analysis; format: cell-based
[25] = system: BT-549; assay: Induction of DNA damage in human BT-549 cells assessed as increase in gamma-H2AX localization in nucleus at 0.125 uM incubated for 48 hrs by fluorescence confocal microscopic analysis; format: functional, cell-based
[26] = system: BT-549; assay: Induction in cell cycle arrest in human BT-549 cells assessed as upregulation of p21 expression at 0.5 uM incubated for 48 hrs by Western blotting analysis; format: functional, cell-based
[27] = system: BT-549; assay: Induction of DNA damage in human BT-549 cells assessed as upregulation of gamma-H2AX level at 0.05 uM incubated for 48 hrs by immunoblotting analysis; format: functional, cell-based
[28] = system: BT-549; assay: Induction of DNA damage in human BT-549 cells assessed as decrease in polyubiquitination in nucleus at 0.125 uM incubated for 48 hrs by fluorescence confocal microscopic analysis; format: functional, cell-based
[29] = system: BT-549; assay: Induction of DNA damage in human BT-549 cells assessed as decrease in ubiquitin localization in nucleus at 0.125 uM incubated for 48 hrs by fluorescence confocal microscopic analysis; format: functional, cell-based
[30] = biological target: T1, Poly [ADP-ribose] polymerase 1; assay: Inhibition of PARP-1 in human BT-549 cells assessed as downregulation of RAD51 expression at 0.05 uM incubated for 48 hrs by immunoblotting analysis; format: cell-based
[31] = system: BT-549; assay: Induction in cell cycle arrest in human BT-549 cells assessed as downregulation of CDK1 expression at 0.5 uM incubated for 48 hrs by Western blotting analysis; format: functional, cell-based
[32] = biological target: T1, Poly [ADP-ribose] polymerase 1; assay: Inhibition of PARP-1 in human BT-549 cells assessed as downregulation of BRCA1 mRNA expression incubated for 48 hrs by RT-qPCR analysis; format: cell-based
[33] = biological target: T1, Poly [ADP-ribose] polymerase 1; assay: Inhibition of PARP-1 in human BT-549 cells assessed as downregulation of BRCA1 expression at 0.5 uM incubated for 48 hrs by immunoblotting analysis; format: cell-based
[34] = system: BT-549; assay: Induction of apoptosis in human BT-549 cells assessed as increase in late apoptotic cells incubated for 48 hrs by Annexin V-FITC/PI staining based flow cytometric analysis; format: functional, cell-based

T1 sequence (P09874 whole entry): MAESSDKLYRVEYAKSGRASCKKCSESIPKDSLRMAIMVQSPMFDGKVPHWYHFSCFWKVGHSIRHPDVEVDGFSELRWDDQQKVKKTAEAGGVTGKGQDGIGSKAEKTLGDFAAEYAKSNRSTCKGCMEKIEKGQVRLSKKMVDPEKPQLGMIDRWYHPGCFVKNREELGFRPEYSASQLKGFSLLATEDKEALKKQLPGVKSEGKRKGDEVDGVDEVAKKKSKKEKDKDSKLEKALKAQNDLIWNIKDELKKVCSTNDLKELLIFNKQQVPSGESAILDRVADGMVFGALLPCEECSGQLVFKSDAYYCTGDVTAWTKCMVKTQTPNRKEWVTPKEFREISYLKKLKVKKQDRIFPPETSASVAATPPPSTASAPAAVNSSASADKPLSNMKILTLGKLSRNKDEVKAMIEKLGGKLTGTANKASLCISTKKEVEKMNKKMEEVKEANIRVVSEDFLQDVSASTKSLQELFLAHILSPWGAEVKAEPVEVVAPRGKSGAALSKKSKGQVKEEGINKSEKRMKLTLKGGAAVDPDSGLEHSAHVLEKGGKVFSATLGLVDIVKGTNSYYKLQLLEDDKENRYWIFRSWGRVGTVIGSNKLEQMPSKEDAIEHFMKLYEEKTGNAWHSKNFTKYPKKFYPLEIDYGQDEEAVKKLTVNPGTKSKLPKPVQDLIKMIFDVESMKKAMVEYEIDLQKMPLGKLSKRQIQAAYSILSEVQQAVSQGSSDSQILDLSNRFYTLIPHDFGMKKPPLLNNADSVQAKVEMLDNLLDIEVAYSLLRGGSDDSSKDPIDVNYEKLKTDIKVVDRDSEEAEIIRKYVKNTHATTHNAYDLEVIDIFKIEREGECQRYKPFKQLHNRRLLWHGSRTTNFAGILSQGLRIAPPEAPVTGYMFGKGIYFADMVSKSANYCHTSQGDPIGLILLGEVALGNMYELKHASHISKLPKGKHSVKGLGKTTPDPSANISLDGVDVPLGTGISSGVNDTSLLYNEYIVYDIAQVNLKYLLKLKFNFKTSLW

SMILES: Cc1c(Cc2ccc(F)c(C(=O)NCC(=O)N[C@@H](CC(C)C)B3O[C@@H]4C[C@@H]5C[C@@H](C5(C)C)[C@]4(C)O3)c2)n[nH]c(=O)c1C
- IC50 [1]: 0.0395 µM
- IC50 [5]: 0.173 µM

SMILES: CC(C)C[C@H](NC(=O)[C@H](Cc1ccccc1)NC(=O)c1cc(Cc2n[nH]c(=O)c3ccccc23)ccc1F)B(O)O
- IC50 [1]: 0.0878 µM
- IC50 [5]: 0.291 µM

SMILES: CC(C)C[C@H](NC(=O)[C@H](C)NC(=O)c1cc(Cc2n[nH]c(=O)c3ccccc23)ccc1F)B1O[C@@H]2C[C@@H]3C[C@@H](C3(C)C)[C@]2(C)O1
- IC50 [1]: 0.132 µM
- IC50 [2]: 0.041 µM
- IC50 [3]: 0.0208 µM
- IC50 [4]: 0.037 µM
- IC50 [5]: 0.118 µM

SMILES: CC(C)C[C@H](NC(=O)[C@@H](NC(=O)c1cc(Cc2n[nH]c(=O)c3ccccc23)ccc1F)C(C)(C)C)B1O[C@@H]2C[C@@H]3C[C@@H](C3(C)C)[C@]2(C)O1
- IC50 [1]: 0.0656 µM
- IC50 [2]: 0.0123 µM
- IC50 [3]: 0.13 µM
- IC50 [4]: 0.0281 µM
- IC50 [5]: 0.171 µM

SMILES: COC[C@H](NC(=O)c1cc(Cc2n[nH]c(=O)c(C)c2C)ccc1F)C(=O)N[C@@H](CC(C)C)B1O[C@@H]2C[C@@H]3C[C@@H](C3(C)C)[C@]2(C)O1
- IC50 [5]: > 1 µM

SMILES: CC(C)C[C@H](NC(=O)[C@H](Cc1c[nH]c2ccccc12)NC(=O)c1cc(Cc2n[nH]c(=O)c3ccccc23)ccc1F)B1O[C@@H]2C[C@@H]3C[C@@H](C3(C)C)[C@]2(C)O1
- IC50 [1]: 0.0426 µM
- IC50 [2]: 0.216 µM
- IC50 [3]: 0.0451 µM
- IC50 [4]: 0.297 µM
- IC50 [5]: 0.028 µM

Further compounds by falling IC50 [5], results first:

- IC50 [1]: 0.0476 µM
- IC50 [5]: 0.116 µM
SMILES: CC(C)C[C@H](NC(=O)[C@H](Cc1ccc(O)cc1)NC(=O)c1cc(Cc2n[nH]c(=O)c3ccccc23)ccc1F)B1O[C@@H]2C[C@@H]3C[C@@H](C3(C)C)[C@]2(C)O1
- IC50 [2]: 0.348 µM
- IC50 [3]: 0.98 µM
- IC50 [4]: 0.328 µM

- inhibition [6]: Active
- inhibition [9]: Active
- IC50 [1]: 0.0823 µM
- inhibition [15]: Dose-Dependent Effect
- inhibition [17]: Active
- inhibition [20]: Dose-Dependent Effect
- inhibition [22]: Active
- inhibition [24]: Dose-Dependent Effect
- inhibition [30]: Active
- inhibition [32]: Dose-Dependent Effect
- IC50 [5]: 0.102 µM
- inhibition [33]: Active
SMILES: CSCC[C@H](NC(=O)c1cc(Cc2n[nH]c(=O)c3ccccc23)ccc1F)C(=O)N[C@@H](CC(C)C)B1O[C@@H]2C[C@@H]3C[C@@H](C3(C)C)[C@]2(C)O1
- Activity [7]: Active
- Activity [8]: Dose-Dependent Effect
- Activity [10]: Active
- inhibition [11]: Dose-Dependent Effect
- inhibition [12]: Dose-Dependent Effect
- Activity [13]: Dose-Dependent Effect
- IC50 [2]: 0.0124 µM
- Activity [14]: Dose-Dependent Effect
- IC50 [3]: 0.0601 µM
- Activity [16]: Active
- Activity [18]: Active
- Activity [19]: Active
- IC50 [4]: 0.0676 µM
- Activity [21]: Active
- Activity [23]: Active
- Activity [25]: Active
- Activity [26]: Active
- Activity [27]: Active
- Activity [28]: Active
- Activity [29]: Active
- Activity [31]: Active
- Activity [34]: Dose-Dependent Effect

- IC50 [1]: 0.0345 µM
- IC50 [5]: 0.1 µM
SMILES: CC(C)C[C@H](NC(=O)[C@H](CCc1ccccc1)NC(=O)c1cc(Cc2n[nH]c(=O)c3ccccc23)ccc1F)B1O[C@@H]2C[C@@H]3C[C@@H](C3(C)C)[C@]2(C)O1
- IC50 [2]: 0.294 µM
- IC50 [3]: 0.0146 µM
- IC50 [4]: 0.0295 µM

- IC50 [1]: 0.0561 µM
- IC50 [5]: 0.098 µM
SMILES: CC(C)C[C@H](NC(=O)[C@H](Cc1c[nH]c2ccccc12)NC(=O)c1cc(Cc2n[nH]c(=O)c3ccccc23)ccc1F)B(O)O

- IC50 [1]: 0.157 µM
- IC50 [5]: 0.0021 µM
SMILES: CC(C)C[C@H](NC(=O)CNC(=O)c1cc(Cc2n[nH]c(=O)c3ccccc23)ccc1F)B1O[C@@H]2C[C@@H]3C[C@@H](C3(C)C)[C@]2(C)O1
- IC50 [2]: 0.0977 µM
- IC50 [3]: 0.355 µM
- IC50 [4]: 0.249 µM
